Test results taken from patent US12600709B2, “Nonpeptide somatostatin type 5 receptor agonists and uses thereof” (Crinetics Pharmaceuticals, Inc., priority 2019, dated 2026).
Like-named read-outs stand apart in the source and are kept apart here.

Tests used:
[1] = molecular target: T1, human somatostatin receptor subtype 5 (Homo sapiens, UniProt P35346); test: cAMP assay for SST5R (inhibition of cAMP in CHO-K1 cells); type: cell-based; conditions: for EC50: inhibition of cAMP via human SST5 receptor, read-out: SST5 potency; for Fold selectivity for SST5 vs SST2: class symbols, SST5 receptor over SST2 receptor
T1 construct: expressed in transfected cells
Summary of the method: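 CHO-K1 cells stably expressing human SSTR5 were treated 20 min at 37 °C with compounds plus 1.6 μM NKH477 in HBSS, 0.5 mM HEPES pH 7.4, 0.1% BSA, 0.2 mM IBMX. Lysate cAMP measured by HTRF against a standard curve; EC50 from cAMP-versus-concentration plots.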

[2] = molecular target: T2, human somatostatin receptor subtype 2 (Homo sapiens, UniProt P30874); test: cAMP assay for SST2R (inhibition of cAMP in CHO-K1 cells); type: cell-based; conditions: Table B; inhibition of cAMP via human SST2 receptor; read-out: SST2 potency
T2 construct: expressed in transfected cells
Excerpt: General overview: All five SSTR subtypes are Gi coupled G-protein coupled receptors (GPCRs) that lead to decreases in intracellular cyclic AMP (cAMP) when activated by an agonist. Therefore, measurement of intracellular cAMP levels can be used to assess whether compounds of the invention are agonists of SSTR subtypes (John Kelly, Troy Stevens, W. Joseph Thompson, and Roland Seifert, Current Protocols in Pharmacology, 2005, 2.2.1-2.2). One example of an intracellular cAMP assay is described below.
cAMP Assay Protocol for SST2R:
Four days prior to the assay, 5,000 Chinese hamster ovary cells (CHO-K1, ATCC #CCL-61) stably expressing the human somatostatin receptor subtype 2 are plated in each well of a 96-well tissue culture-treated plate in Ham's F12 growth media (ThermoFisher #10-080-CM) supplemented with 10% donor bovine serum (Gemini Bio-Products #100-506), 100 U/mL penicillin; 100 μg/mL streptomycin; 2 mM L-glutamine (Gemini Bio-Products #400-110) and 0.2 mg/mL hygromycin B (GoldBio #31282-04-9). The cells are cultured at 37° C., 5% CO2 and 95% humidity. On the day of the assay, the media is aspirated and the cells are treated with 50 μL of 1.6 μM NKH477 (Sigma #N3290) plus various dilutions of compounds of the invention in assay buffer [1× Hank's Balanced Salt Solution (ThermoFisher #SH3058802), 0.5 mM HEPES pH 7.4, 0.1% bovine serum albumin, 0.2 mM 3-Isobutyl-1-methylxanthine (IBMX, VWR #200002-790)]. The cells are incubated for 20 minutes at 37° C. […] The cells are treated with 50 μL of lysis buffer (HRTF cAMP kit, Cisbio). The lysate is transferred to 384-well plates and cAMP detection and visualization antibodies are added and incubated for 1-24 hours at room temperature. The time-resolved fluorescent signal is read with a Tecan M1000Pro multiplate reader. The intracellular cAMP concentrations are calculated by regression to a standard curve and are plotted vs. the concentration of the compounds of the invention and the EC50 of the compounds are calculated using standard methods. All data manipulations are in GraphPad Prism v6 or v7.

T1 sequence (P35346 whole entry): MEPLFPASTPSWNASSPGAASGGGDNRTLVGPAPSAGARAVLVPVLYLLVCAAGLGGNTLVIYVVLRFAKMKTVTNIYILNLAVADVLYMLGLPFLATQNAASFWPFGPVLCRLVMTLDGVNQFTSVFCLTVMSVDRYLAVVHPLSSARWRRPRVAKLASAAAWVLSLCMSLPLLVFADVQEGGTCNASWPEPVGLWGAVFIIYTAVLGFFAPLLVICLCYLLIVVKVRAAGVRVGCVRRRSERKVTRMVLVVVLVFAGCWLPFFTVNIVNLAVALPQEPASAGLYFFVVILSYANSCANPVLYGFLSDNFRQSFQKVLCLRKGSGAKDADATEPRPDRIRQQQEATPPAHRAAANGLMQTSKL
T2 sequence (P30874 whole entry): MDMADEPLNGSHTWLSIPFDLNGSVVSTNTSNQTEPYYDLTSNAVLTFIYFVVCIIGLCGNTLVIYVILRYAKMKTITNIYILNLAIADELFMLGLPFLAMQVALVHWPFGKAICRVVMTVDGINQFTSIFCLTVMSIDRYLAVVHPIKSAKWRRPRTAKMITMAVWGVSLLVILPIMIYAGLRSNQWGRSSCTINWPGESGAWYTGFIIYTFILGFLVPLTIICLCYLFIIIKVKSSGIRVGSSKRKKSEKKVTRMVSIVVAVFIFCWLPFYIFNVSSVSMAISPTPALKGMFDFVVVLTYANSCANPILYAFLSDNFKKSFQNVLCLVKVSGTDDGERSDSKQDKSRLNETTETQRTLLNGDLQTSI

Row | Structure (SMILES) | EC50 ([1]; Table A) [nM] | Fold selectivity for SST5 vs SST2 ([1]; Table B) | EC50 ([1]; Table B) [nM] | EC50 [2] [nM]
1 | C[C@]1(N)CCN(c2c(C(=O)NC3CCC(F)(F)CC3)cncc2-c2cccc(C#N)c2)C1 [1-10, 4-[(3S)-3-amino-3-methylpyrrolidin-1-yl]-5-(3-cyanophenyl)-N-(4,4-difluorocyclohexyl)pyridine-3-carboxamide] | 10 to 100 | ++ (++=100 to 499) | 10 to 100 | > 1000
2 | Cc1cc(F)cc(-c2cncc(C(=O)NC3CCc4ccccc43)c2N2CC[C@](C)(N)C2)c1 (stereo partly drawn) [1-17, 4-[(3S)-3-amino-3-methylpyrrolidin-1-yl]-N-(2,3-dihydro-1H-inden-1-yl)-5-(3-fluoro-5-methylphenyl)pyridine-3-carboxamide] | < 10 | ++ (++=100 to 499) | < 10 | 100 to 1000
3 | CCC1(NC(=O)c2cncc(-c3cc(C)cc(F)c3)c2N2CC[C@](C)(N)C2)CCC1 [1-19, 4-[(3S)-3-amino-3-methylpyrrolidin-1-yl]-N-(1-ethylcyclobutyl)-5-(3-fluoro-5-methylphenyl)pyridine-3-carboxamide] | < 10 | ++ (++=100 to 499) | < 10 | 100 to 1000
4 | C[C@]1(N)CCN(c2c(C(=O)NC3CCC(F)(F)CC3)cncc2-c2cc(F)c(F)c(F)c2)C1 [1-20, 4-[(3S)-3-amino-3-methylpyrrolidin-1-yl]-N-(4,4-difluorocyclohexyl)-5-(3,4,5-trifluorophenyl)pyridine-3-carboxamide] | < 10 | +++ (+++=>500) | < 10 | 100 to 1000
5 | C[C@]1(N)CCN(c2c(C(=O)NC34CC(C3)C4)cncc2-c2cc(F)cc(F)c2)C1 [1-21, 4-[(3S)-3-amino-3-methylpyrrolidin-1-yl]-N-{bicyclo[1.1.1]pentan-1-yl}-5-(3,5-difluorophenyl)pyridine-3-carboxamide] | < 10 | ++ (++=100 to 499) | < 10 | 10 to 100
6 | CC1(C)CC(NC(=O)c2cncc(-c3cc(F)cc(F)c3)c2N2CC[C@](C)(N)C2)C1 [1-22, 4-[(3S)-3-amino-3-methylpyrrolidin-1-yl]-5-(3,5-difluorophenyl)-N-(3,3-dimethylcyclobutyl)pyridine-3-carboxamide] | < 10 | ++ (++=100 to 499) | < 10 | 100 to 1000
7 | Cc1cc(F)cc(-c2cncc(C(=O)NC(C)C3CC3)c2N2CC[C@](C)(N)C2)c1 (stereo partly drawn) [1-24, 4-[(3S)-3-amino-3-methylpyrrolidin-1-yl]-N-(1-cyclopropylethyl)-5-(3-fluoro-5-methylphenyl)pyridine-3-carboxamide] | < 10 | +++ (+++=>500) | < 10 | 10 to 100
8 | Cc1cc(F)cc(-c2cncc(C(=O)NC(C3CC3)C3CC3)c2N2CC[C@](C)(N)C2)c1 [1-25, 4-[(3S)-3-amino-3-methylpyrrolidin-1-yl]-N-(dicyclopropylmethyl)-5-(3-fluoro-5-methylphenyl)pyridine-3-carboxamide] | < 10 | +++ (+++=>500) | < 10 | 100 to 1000
9 | C[C@]1(N)CCN(c2c(C(=O)NC3CC(F)(F)C3)cncc2-c2cc(F)cc(F)c2)C1 [1-30, 4-[(3S)-3-amino-3-methylpyrrolidin-1-yl]-N-(3,3-difluorocyclobutyl)-5-(3,5-difluorophenyl)pyridine-3-carboxamide] | < 10 | ++ (++=100 to 499) | < 10 | 100 to 1000
10 | CCC(CC)NC(=O)c1cncc(-c2cc(F)cc(F)c2)c1N1CC[C@](C)(N)C1 [1-31, 4-[(3S)-3-amino-3-methylpyrrolidin-1-yl]-5-(3,5-difluorophenyl)-N-(pentan-3-yl)pyridine-3-carboxamide] | < 10 | ++ (++=100 to 499) | < 10 | 100 to 1000
11 | CC1(NC(=O)c2cncc(-c3cc(F)cc(F)c3)c2N2CC[C@](C)(N)C2)CCC1 [1-34, 4-[(3S)-3-amino-3-methylpyrrolidin-1-yl]-5-(3,5-difluorophenyl)-N-(1-methylcyclobutyl)pyridine-3-carboxamide] | < 10 | ++ (++=100 to 499) | < 10 | 100 to 1000
12 | C[C@]1(N)CCN(c2c(C(=O)NC3CC(F)(F)C3)cncc2-c2cc(F)cc(Cl)c2)C1 [1-35, 4-[(3S)-3-amino-3-methylpyrrolidin-1-yl]-5-(3-chloro-5-fluorophenyl)-N-(3,3-difluorocyclobutyl)pyridine-3-carboxamide] | < 10 | ++ (++=100 to 499) | < 10 | 100 to 1000

Continued, values first:

Row | EC50 ([1]; Table A) [nM] | Fold selectivity for SST5 vs SST2 ([1]; Table B) | EC50 ([1]; Table B) [nM] | EC50 [2] [nM] | Structure (SMILES)
13 | < 10 | + (+=10 to 99) | < 10 | 100 to 1000 | Cc1cc(C)cc(-c2cncc(C(=O)Nc3cc(F)cc(Cl)c3)c2N2CC[C@H](N)C2)c1 [1-3, 4-[(3 S)-3-aminopyrrolidin-1-yl]-N-(3-chloro-5-fluorophenyl)-5-(3,5-dimethylphenyl)pyridine-3-carboxamide]
14 | < 10 | ++ (++=100 to 499) | < 10 | 100 to 1000 | C[C@]1(N)CCN(c2c(C(=O)Nc3ccccc3F)cncc2-c2ccc(F)c(C#N)c2)C1 [1-4, 4-[(3S)-3-amino-3-methylpyrrolidin-1-yl]-5-(3-cyano-4-fluorophenyl)-N-(2-fluorophenyl)pyridine-3-carboxamide]
15 | < 10 | +++ (+++=>500) | < 10 | 100 to 1000 | Cc1cccc(NC(=O)c2cncc(-c3ccnc(C#N)c3)c2N2CC[C@](C)(N)C2)c1 [1-5, 4-[(3S)-3-amino-3-methylpyrrolidin-1-yl]-2′-cyano-N-(3-methylphenyl)-[3,4′-bipyridine]-5-carboxamide]
16 | < 10 | ++ (++=100 to 499) | < 10 | 10 to 100 | Cc1cc(C)cc(NC(=O)c2cncc(-c3ccnc(C)c3)c2N2CC[C@](C)(N)C2)c1 [1-6, 4-[(3S)-3-amino-3-methylpyrrolidin-1-yl]-N-(3,5-dimethylphenyl)-2′-methyl-[3,4′-bipyridine]-5-carboxamide]
17 | < 10 | +++ (+++=>500) | < 10 | > 1000 | Cc1cc(C)cc(-c2cncc(C(=O)NC3CCCC(C)(C)C3)c2N2CC[C@](C)(N)C2)c1 (stereo partly drawn) [1-11, 4-[(3S)-3-amino-3-methylpyrrolidin-1-yl]-N-(3,3-dimethylcyclohexyl)-5-(3,5-dimethylphenyl)pyridine-3-carboxamide]
18 | < 10 | +++ (+++=>500) | < 10 | 100 to 1000 | Cc1cc(C)cc(-c2cncc(C(=O)NC3CCC(F)(F)CC3)c2N2CC[C@](C)(N)C2)c1 [1-12, 4-[(3S)-3-amino-3-methylpyrrolidin-1-yl]-N-(4,4-difluorocyclohexyl)-5-(3,5-dimethylphenyl)pyridine-3-carboxamide]
19 | < 10 | +++ (+++=>500) | < 10 | 100 to 1000 | Cc1cc(F)cc(-c2cncc(C(=O)NC3CCC(F)(F)CC3)c2N2CC[C@](C)(N)C2)c1 [1-13, 4-[(3S)-3-amino-3-methylpyrrolidin-1-yl]-N-(4,4-difluorocyclohexyl)-5-(3-fluoro-5-methylphenyl)pyridine-3-carboxamide]
20 | < 10 | +++ (+++=>500) | < 10 | 100 to 1000 | C[C@]1(N)CCN(c2c(C(=O)NC3CCC(F)(F)CC3)cncc2-c2cc(F)cc(F)c2)C1 [1-16, 4-[(3S)-3-amino-3-methylpyrrolidin-1-yl]-N-(4,4-difluorocyclohexyl)-5-(3,5-difluorophenyl)pyridine-3-carboxamide]
